# Values quoted from earlier work, collected in US5703067A, “Inhibitors of farnesyl-protein transferase” (Merck & Co., Inc., priority 1995, dated 1997).
# System: farnesyl-protein transferase
# Details: via HMG-CoA reductase inhibition, literature
row,Structure (SMILES),Indirect inhibition of farnesyl-protein transferase in vivo
1,CC[C@H](C)C(=O)O[C@H]1CCC=C2C=C[C@H](C)[C@H](CC[C@@H]3C[C@@H](O)CC(=O)O3)[C@H]21 [compactin],Indirect inhibition of farnesyl-protein transferase in vivo has been demonstrated
2,CC[C@H](C)C(=O)O[C@H]1C[C@@H](C)C=C2C=C[C@H](C)[C@H](CC[C@@H]3C[C@@H](O)CC(=O)O3)[C@H]21 [lovastatin],Indirect inhibition of farnesyl-protein transferase in vivo has been demonstrated
